Measurements: patent US20240374746A1, “SIRP-ALPHA ANTIBODIES AND CONJUGATES” (Tallac Therapeutics, Inc., priority 2021, published 2024)

What was measured:
[1] = tested on: Ramos-Blue Cells NF-kB/AP-1 Reporter B lymphocytes; test: Ramos NFkb Reporter Assay; assay type: cell-based, human; conditions: 1 uM to 64 pM CpG, 24 h; compared to 12070 and ODN2006
Procedure: For Ramos NFkb Reporter Assay, Ramos-Blue Cells NF-kB/AP-1 Reporter B lymphocytes were purchased from Invivogen. Cells were grown and maintained in complete DMEM supplemented with 2 mM L-glutamine, 10% FBS, 100 ug/mL Normacin, Pen-Strep, 100 ug/mL Zeocin. Stimulation of the Ramos-Blue cells was performed. Briefly, cells were rinsed in growth medium without antibiotics. Cells were counted and resuspended in fresh complete DMEM without selection antibiotics at a density of 2×10^6 cell/mL. 20 uL of 10 uM CpG 7-7, CpG 12070 and ODN2006 titrated 1:5 were added to a flat-bottom 96-well plate, 180 uL of the cell suspension were added to a final concentration of 1 uM to 64 pM of CpG. Plate was incubated at 37° C. in a 5% CO2 incubator for 24 h. On day of assay, QB reagent and QB buffer were thawed before us. Quanti-Blue solution was prepared by adding 1 mL of QB reagent and […] QB buffer to 98 mL of sterile water in a sterile glass bottle. 180 μL of Quanti-Blue solution was dispensed per well into a new flat-bottom 96-well plate. 20 μL of supernatant from treated Ramos-Blue cells was then added to the 96-well plate. Plate was ten incubated for 6 h. Optical density was measured at OD655 using a plate reader (Molecular Devices), and data was tabulated in GraphPad Prism 9.0.

dendritic cells [2] = test: Dendritic cell activation (CD40) in cynomolgus PBMCs; assay type: cell-based; conditions: 48 hours
Procedure: Cynomolgus whole blood was received from BioIVT and diluted 1:3 with Phosphate Buffered Saline (PBS, Gibco). Diluted blood was underplayed with 15 mL 90% Ficoll-Paque (GE Healthcare) in PBS solution. Tubes were centrifuged for 30 minutes at 400×g with break off. Cells were collected from the interface, resuspended and washed in FACS buffer (PBS with 0.5% Bovine Serum Albumin (Gibco)). After one wash, cells were resuspended in ACK lysis buffer (Gibco) for 15 min at room temperature, washed in FACs buffer and centrifuged before repeating. Purified PBMCs were resuspended in Complete RPMI (RPMI, 10% FBS, 1× Pen/Strep, 1× Glutamax). PBMCs were immediately plated onto a 96-well format (0.3e6/well) in Complete RPMI. Three-fold serial dilutions were added to the cells from 1 μM to 1.4 nM of CpG oligonucleotide and 300 nM to 0.4 nM of anti-SIRP-α antibody (heavy chain comprising the sequence of SEQ ID NO:66 and light chain comprising the sequence of SEQ ID NO:75) and the corresponding antibody:CpG conjugate (heavy chain comprising the sequence of SEQ ID NO: 66 and light chain comprising the sequence of SEQ ID NO:75, conjugated to CpG oligo 7-7 (SEQ ID NO:35)) at 37° C. under 5% CO2 for 48 hours. […] Cells were analyzed on Attune NxT Flow Cytometer (Thermo Fisher), with subsequent data analysis by Flowjo 10.7 (Treestar). […] Levels of activation marker were assessed by median fluorescent intensity.

[3] = tested on: PBMC cells from three different donor lines (D559, D804 and D643); test: CpG activity on PBMCs from different donors (CD40 expression); assay type: cell-based, human; conditions: PBMCs of donors D559, D804 and D643; compared with 12070
Procedure: Trima residuals were received from Vitalant and diluted 1:2 with Phosphate Buffered Saline (PBS, Gibco). Diluted blood was split into two tubes and underplayed with 15 mL Ficoll-Paque (GE Healthcare). Tubes were centrifuged for 30 minutes at 400×g. PBMCs were collected from the interface, resuspended and washed in FACS buffer (PBS with 0.5% Bovine Serum Albumin (Gibco)). After one wash, PBMCs were resuspended in Complete RPMI (RPMI+10% FBS).
PBMCs were immediately plated onto a 96-well format (500K/well) in Complete RPMI. Five-fold serial dilutions were added to the cells from 1 uM to 64 pM of CpG oligonucleotides at 37° C. under 5% CO2 for 48 hours. Cells were pelleted by centrifugation for five minutes at 400×g and stained at 4° C. in Fixable Viability Dye eFluor 780 (Thermo Fisher) diluted 1:4000 in PBS. Cells were centrifuged and stained at 4° C. in FACS buffer for 30 minutes containing FcR Blocking Reagent (Miltenyi Biotec), anti-CD19, anti-CD20, anti-CD40, anti-HLADR and anti-CD80. Cells were centrifuged and washed twice in FACS buffer and fixed in 0.5% paraformaldehyde. Cells were analyzed on Attune NxT Flow Cytometer (Thermo Fisher), with subsequent data analysis by Flowjo 10.7 (Treestar). Dead cells were excluded by gating on the eFluor 780-negative population. B cells were identified as CD19+CD20+ cells and level of activation marker was assessed by median fluorescent intensity. […]

dendritic cells [4] = test: Dendritic cell activation (CD40) in human PBMCs; assay type: cell-based; conditions: 24 hours
Procedure: Trima residuals were received from Vitalant and diluted 1:3 with Phosphate Buffered Saline (PBS, Gibco). Diluted blood was underplayed with 15 mL Ficoll-Paque (GE Healthcare). Tubes were centrifuged for 30 minutes at 400×g with break off. PBMCs were collected from the interface, resuspended and washed in FACS buffer (PBS with 0.5% Bovine Serum Albumin (Gibco)). After one wash, PBMCs were resuspended in Complete RPMI (RPMI, 10% FBS, 1× Pen/Strep, 1× Glutamax). PBMCs were immediately plated onto a 96-well format (1e6/well) in Complete RPMI. Three-fold serial dilutions were added to the cells from 300 nM to 0.4 nM for anti-SIRP-α antibody (heavy chain comprising the sequence of SEQ ID NO:66 and light chain comprising the sequence of SEQ ID NO:75) and anti-SIRP-α conjugate (heavy chain comprising the sequence of SEQ ID NO:66 and a light chain comprising the sequence of SEQ ID NO:75, conjugated to CpG oligo 7-7 (SEQ ID NO:35)). Free CpG 7-7 (SEQ ID NO:35) was titrated from 3 μM to 4.12 nM. Cells were incubated at 37° C. under 5% CO2 for 24 hours. […] Cells were analyzed on Attune NxT Flow Cytometer (Thermo Fisher), with subsequent data analysis by Flowjo 10.7 (Treestar). […] Levels of activation marker were assessed by median fluorescent intensity.

[5] = tested on: THP-1-Dual hTLR9 cell line, interferon regulatory factor (IRF) pathway; test: THP-1-Dual hTLR9 reporter assay, IRF pathway (secreted Lucia luciferase); assay type: cell-based; conditions: 24 hours; F(ab′)2 anti-human IgG Fcγ cross-linking agent; read-out: EC50 of IRF induction
Procedure: THP-1-Dual hTLR9 cell line (thpd-nfis, Invivogen) was derived from human THP-1 monocytes engineered to overexpress the human TLR9 (hTLR9) gene and featuring two reporter genes allowing for simultaneous assessment of the NF-kB pathway by monitoring the activity of an inducible secreted embryonic alkaline phosphatase (SEAP), and the interferon regulatory factor (IRF) pathway by monitoring the activity of an inducible secreted Lucia luciferase. Briefly, 250,000 cells in 100 uL of growth media (RPMI 1640 (Gibco), 2 mM L-glutamine (Gibco), 25 mM HEPES (Gibco), 10% FBS (Gibco), 100 U/mL penicillin (Gibco), 100 ug/mL streptomycin (Gibco), 100 ug/mL Normacin (Invivogen) were plated in 96-well flat-bottom plates (Nunc). An 8 step 2-fold serial dilution of anti-SIRP-α antibody or anti-SIRP-α antibody conjugate was added to cells in 50 μL for a final concentration range of 200 nM-1.56 nM. 10 μg/mL of a F(ab′)2 fragment goat anti-human, IgG Fcγ fragment specific (Jackson Immuno Research) was added in 50 μL of growth media as a cross-linking agent. Cells were incubated at 37 C for 24 hours. NF-kB and IRF induction from supernatant was detected according to manufacturer's protocol. EC50 values were derived using three-parameter […] regression curve fir in Prism 9 (GraphPad), and data were presented as fold-over media control. […]

[6] = tested on: CD14+ monocytes and dendritic cells; test: CD40 activation in myeloid cells by unconjugated CpG oligonucleotides; assay type: cell-based; conditions: human myeloid cells; 40 nM, 48 hours; compared to the 12070 CpG oligonucleotide
Procedure: Trima residuals were received from Vitalant and diluted 1:3 with Phosphate Buffered Saline (PBS, Gibco). Diluted blood was underplayed with 15 mL Ficoll-Paque (GE Healthcare). Tubes were centrifuged for 30 minutes at 400×g with break off. PBMCs were collected from the interface, resuspended and washed in FACS buffer (PBS with 0.5% Bovine Serum Albumin (Gibco)). After one wash, PBMCs were resuspended in Complete RPMI (RPMI+10% FBS). PBMCs were immediately plated onto a 96-well format (1e6/well) in Complete RPMI. CpG oligonucleotides were incubated with the cells at 40 nM concentration at 37° C. under 5% CO2 for 48 hours. Cells were pelleted by centrifugation for five minutes at 400×g and stained at 4° C. in Fixable Viability Dye eFluor 780 (Thermo Fisher) diluted 1:5000 in PBS. Cells were centrifuged and stained at 4° C. in FACS buffer for 60 minutes containing FcR Blocking Reagent (Miltenyi Biotec), anti-CD14, anti-CD11c, anti-CD3, anti-CD19, anti-CD56, anti-CD16, anti-HLADR, anti-CD40, and anti-CD86 (Thermo Fisher, Biolegend). Cells were centrifuged and washed twice in FACS buffer and fixed in 0.5% paraformaldehyde. Cells were analyzed on Attune NxT Flow Cytometer (Thermo Fisher), with subsequent data analysis by Flowjo 10.7 (Treestar). Dead cells were excluded by gating on the eFluor 780-negative population. […] Levels of activation marker were assessed by median fluorescent intensity.

Substance: CpG 7-7 (DNA TCGTCGTGTCGTTT; modified_base 1 OTHER; 5-Bromo-2'-deoxyuridine; modified_base 13..14 OTHER; 2'-O-Methyl-Thymidine; modified_base 1..4 OTHER; phosphorothioate linkages; misc_feature 4^5 phosphotriester linker-PEG24-NH2; modified_base 5..9 OTHER; modified_base 9^10 OTHER; phosphorodithioate linkage; modified_base 10..14 OTHER; misc_feature 14 3' spacer C3)
- activity in NFkb reporter assay [1]: significantly higher activity
- surface marker expression (CD40) on dendritic cells (dendritic cells [2]): potent TLR9 agonist with targeted dendritic cell activation across species
- activity as observed by CD40 expression [3]: higher activities
- surface marker expression (CD40) on dendritic cells (dendritic cells [4]): potent TLR9 agonist with targeted dendritic cell activation across species
- EC50 [5]: 0.084 µM
- activation of CD40 [6]: higher activation of CD40
